This note sets out measurements from patent US8987301B2, “Heteroarylaminoquinolines as TGF-beta receptor kinase inhibitors” (Merck Patent GmbH, priority 2009, dated 2015).

The term IC50 denotes the concentration needed to halve the response being measured.

This assay deals with T1, TβR (GST-ALK5) (Homo sapiens, UniProt P36897).
T1 sequence (P36897 34-503): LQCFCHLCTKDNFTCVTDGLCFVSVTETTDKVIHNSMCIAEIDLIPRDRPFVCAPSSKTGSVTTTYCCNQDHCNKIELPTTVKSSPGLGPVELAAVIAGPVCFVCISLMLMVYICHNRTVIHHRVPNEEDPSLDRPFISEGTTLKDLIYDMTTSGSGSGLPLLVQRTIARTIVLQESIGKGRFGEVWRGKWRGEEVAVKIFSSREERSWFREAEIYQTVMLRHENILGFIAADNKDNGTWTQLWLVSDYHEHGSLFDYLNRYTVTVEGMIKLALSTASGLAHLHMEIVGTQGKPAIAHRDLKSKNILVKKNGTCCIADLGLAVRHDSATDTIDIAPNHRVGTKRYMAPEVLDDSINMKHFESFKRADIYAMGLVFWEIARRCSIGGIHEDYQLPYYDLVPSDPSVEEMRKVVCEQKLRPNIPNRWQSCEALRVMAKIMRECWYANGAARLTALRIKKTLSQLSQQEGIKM
Briefly: In-vitro (enzyme) flashplate kinase assay, TβR activity. Type of assay: biochemical. The following applies: GST-ALK5, GST-SMAD2 substrate, 3 mM ATP. On the procedure:
In-Vitro (Enzyme) Assay for Determination of the Efficacy of Inhibitors of the Inhibition of TGF-Beta-Mediated Effects
The kinase assay was carried out as 384-well flashplate assay. […] The reaction was stopped using 25 μl of 200 mM EDTA solution, filtered with suction at room temperature after 30 min, and the wells were washed with 3 times 100 μl of 0.9% NaCl solution. Radioactivity was measured in the TopCount. The IC50 values were calculated using RS1. Above and below, all temperatures were indicated in ° C.

`Clc1cccc(-c2cc(Nc3ccncc3)c3ccccc3n2)c1Cl` [compound 112] registered an IC50 greater than 10000 nM.

`CCC(=O)Nc1cc(Nc2cc(-c3cc(Cl)ccc3F)nc3ccccc23)ccn1` [compound 113] gave an IC50 of less than 500 nM.

`CC(C)(C)OC(=O)NCC(=O)Nc1cc(Nc2cc(-c3cc(Cl)ccc3F)nc3ccccc23)ccn1` [compound 114] returned a half-inhibitory concentration (IC50) of 1000 to 10000 nM.

`NCC(=O)Nc1cc(Nc2cc(-c3cc(Cl)ccc3F)nc3ccccc23)ccn1` [compound 115] had a half-maximal inhibitory concentration (IC50) of 1000 to 10000 nM.

Consider `COC(=O)c1cnccc1Nc1cc(-c2cc(Cl)ccc2F)nc2ccccc12` [compound 116], for which the IC50 was less than 500 nM.

For the molecule `Nc1nc(N)nc(Nc2cc(-c3cc(Cl)ccc3F)nc3ccccc23)n1` [compound 117], the IC50 lay in the range of 1000 to 10000 nM.

The molecule `Nc1ncnc(Nc2cc(-c3cc(C(F)(F)F)ccc3F)nc3ccccc23)n1` [compound 118] came in with an IC50 of less than 500 nM.

In turn, `CNC(=O)c1cnccc1Nc1cc(-c2cc(Cl)ccc2F)nc2ccccc12` [compound 119] returned a 50% inhibitory concentration (IC50) of less than 500 nM.

`OCc1cnccc1Nc1cc(-c2cc(Cl)ccc2F)nc2ccccc12` [compound 120] had a 50% inhibitory concentration (IC50) of less than 500 nM.

For `CN(C)CCCNc1cc(Nc2cc(-c3ccccc3F)nc3ccccc23)ccn1` [compound 121], the IC50 is less than 500 nM.

The molecule `N#Cc1cncnc1Nc1cc(-c2cc(Cl)ccc2F)nc2ccccc12` [compound 122] showed a 50% inhibitory concentration (IC50) of less than 500 nM.

On to `CN(C)CCNC(=O)c1cnccc1Nc1cc(-c2cc(Cl)ccc2F)nc2ccccc12` [compound 123], for which the IC50 is less than 500 nM.

`O=C(O)c1cc(Nc2cc(-c3cc(Cl)ccc3F)nc3ccccc23)ccn1` [compound 124] showed a half-inhibitory concentration (IC50) of 1000 to 10000 nM.

Regarding `CN1CCC(NC(=O)c2cnccc2Nc2cc(-c3cc(Cl)ccc3F)nc3ccccc23)CC1` [compound 125], the concentration for half-maximal inhibition (IC50) is less than 500 nM.

The molecule `CN1CCN(C(=O)c2cnccc2Nc2cc(-c3cc(Cl)ccc3F)nc3ccccc23)CC1` [compound 126] registered a half-maximal inhibitory concentration (IC50) of 1000 to 10000 nM.

`OCc1cnccc1Nc1cc(-c2ccccc2F)nc2ccccc12` [compound 127] registered an IC50 of less than 500 nM.
